Data reported in US20120141601A1, “DIETARY SUPPLEMENT, FEED AND PHARMACEUTICAL COMPOSITION CONTAINING CHIA SEED AND MACA, AND PREPARATION METHOD THEREOF” (priority 2009, published 2012).

Experiments:
Format in all cases: in vivo, Sprague-Dawley male rats
[1] = Endurance test, weighted swimming in bath
Description: (§1) Sprague-Dawley male rats (Orientbio) were divided into groups of six which were then administered for 26 days with neither alcohol nor the extracts for the normal group, with alcohol but not with extracts for the control group, with alcohol and 1% by weight octacosanol, with alcohol and 1% by weight chia seeds, with alcohol and 0.5% by weight maca, and with alcohol and a mixture of 1% by weight chia seeds and 0.5% by weight maca, respectively. Typical feedstuff was fed, together with water, to the normal group and, together with 25% alcohol, to the control group while the feedstuff for the other groups contained the test substances as described above.
A swimming experiment was conducted in a transparent acryl bath (with a dimension of length 80 cm×width 50 cm×depth 90 cm) ⅔ filled with water maintained at 24° C. The Sprague-Dawley male rats (Orientbio) were allowed to freely swim with a weight equivalent to 8˜10% of their body weight suspended from the abdomen thereof. Measurements were made of the time it took for the rat to swim to a point at which the head was submerged for 10 sec or longer below the water surface (Hong, S. G., J. Kor. Food Sci. Nutr. 32(7), 1076 (2003)).
To investigate the effects of chia seeds and maca (extract), used as active ingredients in the composition of the present invention, on endurance, measurements of the swing time were analyzed. The swimming time was measured to be 306.33±6.21 sec for the normal group, but 147.16±21.71 sec for the control group, which was equivalent to about 46% of that of the normal group. In contrast, 352.66±34.69 sec was measured for the octacosanol-administered group, 355.66±34.62 sec for the chia seed-administered group, 476.00±45.56 sec for the maca-administered group, and 527.83±25.57 sec for the group co-administered with chia seeds and mace, which were increased by 2.4, 2.4, 3.2 and 3.5 times, compared to the control group. […]

[2] = Locomotor activity, open field test
Description: as §1
The locomotor activities of the groups set in Test Example 3 were measured in an open field test chamber (38.0 cm×26.0 cm×42.0 cm; LETICA, SPAIN). Horizontal activity was recorded by an IR detector for 10 min To investigate the effects that chia seeds and maca (extract), used as active ingredients in the composition of the present invention, had on locomotor activity, measurements of the horizontal activity were analyzed. The horizontal activity was 1179.2±21.2 cm for the normal group, but […] for the control group, which was decreased by about 75% compared to the normal. […]

[3] = Rotarod performance test for space perception and endurance
Description: as §1
The groups set in Test Example 3 were measured for space perception activity by the rotarod performance test which was conducted for 5 min for each rat with the cylinder (380×260×420 mm) of rotarod LE8300 (LETICA, SPAIN) rotating at a speed of 4 to 40 rpm. Cases in which the rats fell on the ground within 20 sec after starting were excluded from the measurement.
To investigate the effect of chia seeds and maca (extract), used as active ingredients in the composition of the present invention, on space perception and endurance, measurements of the rotarod performance test were analyzed. […] In contrast, the time was 98.16±11.35 sec for octacosanol-administered group, 151.50±5.08 sec for the chia seed-administered group, 215.33±13.14 sec for the maca-administered group and 240.66±39.30 sec for the group co-administered with chia seeds and maca, which were increased by 3, 5, 7, and 8 times, respectively, compared to the control group. As apparent from the data of the rotarod performance test, space perception and endurance were enhanced by octacosanol, chia seeds, maca, and a combination of chia seeds and maca, and most increased, inter alia, by the mixture of chia seeds and maca (FIG. 6, Table 2).

[4] = Blood alcohol concentration
Description: as §1
Blood alcohol concentrations were measured after the rats were administered 25% alcohol every day for 30 days. In this regard, blood samples were taken from the tail vein of the rats of the test groups set in Test Example 3 at 6 P.M. every five days, and blood alcohol concentrations were determined using an alcohol tester (Asia Commerce Co. Ltd., Model No. LION SD-400).
To investigate the effect of chia seeds and maca (extract), used as active ingredients in the composition of the present invention, on the degradation of blood alcohol, measurements of the blood alcohol concentration were analyzed. The blood alcohol concentration was 0% for the normal group and 0.06% for the control group. […]

alcohol dehydrogenase = experiment: Hepatic alcohol dehydrogenase activity in liver homogenate; conditions: liver homogenate supernatant, absorbance at 340 nm; groups of Test Example 3
Description: as §1
(§2) In order to investigate the effect of the composition of the present invention on alcoholysis enzymes, the rats of the test groups set in Test Example 3 were anesthetized with chloroform and subjected to ventrotomy to excise the liver. The liver tissue was homogenized in 10 volumes of 100 mM sodium phosphate buffer, pH 7.4, using a homogenizer and then disrupted with an ultrasonicator. Centrifugation at 700 G for […] removed nuclei and cell debris. After centrifugation at 9,000 G for 20 min, the supernatant was measured for hepatic alcohol dehydrogenase and aldehyde dehydrogenase activity. The protein concentration of the supernatant was determined using a BCA kit and used to normalize the amount of liver tissue between test groups. […]

aldehyde dehydrogenase = experiment: Hepatic aldehyde dehydrogenase activity in liver homogenate; conditions: liver homogenate supernatant, absorbance at 340 nm; groups of Test Example 3
Description: as §1, §2

testosterone = experiment: Testosterone level in whole blood; conditions: 25% alcohol daily for 25 days, whole blood from the heart
Description: as §1
(§3) After the rats of the test groups set in Test Example 3 were administered with 25% alcohol every day for 25 days, blood samples were taken from the tail vein and measured for testosterone level using enzyme immunoassay (Roche, USA). The levels of testosterone and high-density lipoproteins in the whole blood taken from the heart were measured in Eone Reference Laboratory.
To investigate the effect of chia seeds and maca (extract), used as active ingredients in the composition of the present invention, on testosterone activity, the levels of testosterone in whole blood were analyzed. […]

[5] = test system: high-density lipoproteins; experiment: High-density lipoprotein level in whole blood; conditions: 25% alcohol daily for 25 days, whole blood from the heart
Description: as §1, §3
To investigate the effect of chia seeds and maca (extract), used as active ingredients in the composition of the present invention, on penile function, the levels of high-density lipoproteins were analyzed. […]

For `CCCCCCCCCCCCCCCCCCCCCCCCCCCCO` [octacosanol], the swimming time ([1]; 26 days, alcohol plus 1% octacosanol, 1% chia seeds, 0.5% maca or 1% chia seeds + 0.5% maca in feed, weight 8-10% of body weight) was 352.66 ± 34.69 s, the “swimming time” value ([1]; Table 1, endurance test with swimming in bath) was 352.66 ± 34.69 s and the “increase of swimming time compared to the control group” value ([1]; vs alcohol control group) was 2.4 times. For the same compound, the horizontal activity ([2]; open field, IR detector, 10 min, groups of Test Example 3) was 240.2±12.3 cm, the “increase of horizontal activity compared to the control group” value ([2]; vs alcohol control group) was 8 times and the time on rotarod ([3]; Table 2, rotarod performance test) was 98.16 ± 11.35 s. The “time that the rats stayed on the rotating cylinder” value ([3]; rotarod 4 to 40 rpm, 5 min, groups of Test Example 3) was 98.16 ± 11.35 s, the “increase of time on rotating cylinder compared to the control group” value ([3]; vs alcohol control group) was 3 times and the blood alcohol concentration ([4]; 25% alcohol daily for 30 days, tail vein blood, groups of Test Example 3) was 0.034%. For the same compound, the “decrease of blood alcohol concentration compared to the control group” value ([4]; vs alcohol control group) was 55%, the alcohol dehydrogenase activity (alcohol dehydrogenase) was 8.9±0.8 mmole/min/mg protein and the aldehyde dehydrogenase activity (aldehyde dehydrogenase) was 9.8±1.4 mmole/min/mg protein. For the same compound, the “level of testosterone in whole blood” value (testosterone) was 195 ± 62.2 ng/dL and the “level of high-density lipoproteins” value [5] was 32.5 ± 1.5 mg/dL.
